The term melting point denotes the temperature of the solid-liquid transition.

Some results are limits rather than exact numbers.

The compound `O=C(c1ccccc1)n1c(=O)c(C(F)(F)F)cn(C2CC(OCc3ccccc3)C(CO)O2)c1=O` (stereo unspecified) returned a melting point of 154 to 155 °C.
Regarding `CN(C)CCOc1ccc(-c2cccc(N)n2)c2ccccc12`, the melting point lay within 98 to 106 °C.
Next, `CCOC(=O)c1c(C)cc2cnc(-c3ccccc3C)nc2c1C`: 56 to 57 °C.
The compound `COC(=O)C1=C(CF)NC(C)=C(C(=O)OC(C)C)C1c1cccc(Cl)c1Cl` (stereo unspecified) showed a melting point of 148 to 149 °C.
The figure for `Cc1cc(Cl)cc(C(=O)NNCC(=O)NCc2ccccc2)c1NC(=O)c1cc(Br)nn1-c1ncccc1Cl` is 120 to 121 °C.
Compound `CCCC(=O)C(=CNc1ccccc1F)C(=O)OCC` showed a melting point of 60 to 62 °C.
In the case of `CC(=O)NCCN1CCc2ccc3c(c21)CCCO3`, the melting point lay in the range of 91 to 93 °C.
As for `C/C=C(/c1ccc(C(=O)O)cc1)c1ccc2c(c1)C(C)(C)CCC2(C)C`, the melting point came out at 212 °C.
As to `CCNC(=O)n1nc(Oc2ccc([N+](=O)[O-])cc2)cc1C`, the melting point is 105 to 107 °C.
The figure for `CC(=O)NNC(=O)c1[nH]c2ccccc2c1Cl` is 253 to 255 °C; for `Cc1ccccc1NC(C#N)c1c(Cl)cccc1Cl` (stereo unspecified) it is 108 °C.
Consider `O=C(Nc1ccc2ccc(Cl)nc2n1)c1cccs1`, for which the melting point is 244 °C.
Next, `CCOC(=O)c1ccc(N2CCN(C(=O)c3ccc(Cl)cc3)CC2)cc1`: 147 to 150 °C; `CNc1ccc(C(=O)OC)c(F)n1`: 156 to 159 °C.
The compound `CCCCCCOc1c(OC)cc(N)c2ncccc12` returned a melting point of 168 to 171 °C.
Take `Cc1nn(CC(F)CO)c(-c2ccc(F)cc2)c1-c1ccc2c(c1)NC(=O)CO2` (stereo unspecified): the melting point was in the range of 193 to 196 °C.
As to `COc1ccc(-c2nc(N)sc2-c2ccnc(N)c2)cc1`, the melting point is 251 to 254 °C.
`Cc1cccc(C)c1NC(=O)c1cc(CO)on1` had a melting point of 95 °C.
In turn, `CC(C)(C)N1CCN(c2cc3c(cc2F)c(=O)c(C(=O)O)cn3C2CC2)CC1` had a melting point of 257 to 260 °C.
`Cn1c(=O)c(C(=O)O)c(-c2ccccc2Cl)c2cc(Cl)ccc21` came in with a melting point of 197 to 198 °C.
The compound `CSC(=NC#N)NCCN1CCC(Nc2nc3cccnc3n2Cc2ccc(F)cc2)CC1` showed a melting point of 172 °C.
In the case of `COC(=O)c1ccc(N2CCCC2=O)c(N)c1`, the melting point was in the range of 136 to 138 °C.
Take `Cc1nc2c(N)nc3ccccc3c2n1CCCCOCC#Cc1ccccc1`: the melting point fell in the range of 109 to 110 °C.
Turning to `CCOC(=O)c1ncn2c1[C@@H]1CCN1C(=O)c1cc(F)ccc1-2`, the melting point lay in the range of 226 to 227 °C.
The figure for `CCOCOC1=C(c2cc(C)ccc2C)C(=O)NC12CCN(OC)CC2` is 150 to 152 °C.
In turn, `Cc1cc(N2CCC(=O)CC2)c2cc(C)c(-c3ccc(Cl)cc3Cl)n2n1` returned a melting point of 170 to 171 °C.
In turn, `CC1(C)NC(=O)N(CC(CSc2ccc(-c3ccc(C(F)(F)F)cc3)cc2)N(O)C=O)C1=O` (stereo unspecified) gave a melting point of 172 to 174 °C.
In turn, `C#CCN(Cc1cc2c(=O)n(C)c(CN3CCN(CCO)CC3)nc2cc1Cl)c1ccc(C(=O)NCc2cccnc2)cc1` gave a melting point of 115 to 117 °C.
In turn, `CCOC(=O)C=C(C)C=CC=C(C)C=Cc1c(C)cc(OC)c(C)c1Cl` returned a melting point of 106 to 107 °C.
Take `CN1CCCC1c1ccc(Nc2cc(Br)cn(C)c2=O)nc1` (stereo unspecified): the melting point lay within 143 to 145 °C.
As to `Cc1ccc2c(Sc3ccc(Cl)cc3)c(C(=O)O)[nH]c2c1`, the melting point was 228 to 229 °C.
Compound `COc1cc(Br)c(C(C)=O)cc1OC(C)C` returned a melting point of 59 to 59.9 °C.
The figure for `C[C@H]1[C@@H](CO)CCN1c1ccc(C#N)c2sccc12` is 109 to 111 °C.
On to `COc1ccc(Cn2nnc(-c3cccc(CO)c3)n2)cc1`, for which the melting point fell in the range of 70 to 72 °C.
For `CN(C)c1n[nH]c(=O)n1N(C)C`, the melting point turned out to be 93 °C.
The figure for `COCCOCCOC(=O)C#CC(=O)c1cc(OC)c(OC)c(OC)c1` is 33 to 34 °C; for `COC(=O)[C@@H](C)OCC#Cc1cc(Cl)ccc1NS(=O)(=O)c1ccc2ncsc2c1` it is 136 °C; for `Cc1cc2ncccc2[nH]1` it is 193 to 195 °C.
As to `CCOc1cc(OCC)cc(-c2cncn2-c2ccc(S(C)(=O)=O)cc2)c1`, the melting point lay in the range of 100 to 101 °C.
Compound `COC(=O)c1ccc(C(=O)CCCOC(C)=O)cc1` registered a melting point of 61 to 62 °C.
`COc1cccc(OC)c1-c1ccc(C[C@H](NC(=O)c2c(Cl)cc(-c3ccn[nH]3)cc2Cl)C(=O)O)cc1`: the melting point was found to be 156 °C.
For `CNc1nc(-c2cccc(N)c2)cs1`, the melting point was 118 to 121 °C.
Turning to `NC(=O)c1c[nH]c2ccc([N+](=O)[O-])cc12`, the melting point is 284 to 288 °C.
Compound `O=c1oc(-c2ccccc2)cc(O)c1Sc1cccc(C(F)(F)F)c1` registered a melting point of 228 to 229 °C.
As for `CN1CCC(N(C)C(=O)c2ccc3nonc3c2)CC1`, the melting point is over 260 °C.
Next, `COC(=O)C(C#N)CC(=O)c1ccc(Cl)cc1` (stereo unspecified): 75 to 79 °C; `CCOC(=O)CNC(=O)c1ccc(N)cc1`: 93 to 94 °C; `COC(=O)c1ccc2[nH]c(=O)n(Cc3ccc(OC)cc3)c(=O)c2c1`: 235 to 237 °C.
On to `CCCCCCN1N=C(c2ccc(OC)c(OC)c2)C2CC=CCC2C1=O` (stereo unspecified), for which the melting point lay within 74 to 75 °C.
The figure for `OCc1ccc(-c2c3ccccc3nn2Cc2ccco2)cc1` is 129 to 130 °C; for `COC(=O)c1ccc(/C=C/C(=O)NOC2CCCCO2)s1` (stereo unspecified) it is 177 °C.
In turn, `CCCCc1cc(=O)c(C(=O)OCC)cn1Cc1ccc(-c2ccccc2C(=O)OC(C)(C)C)cc1` showed a melting point of 80 to 81 °C.
For the compound `CC(C)OC(=O)c1cc(-c2ccncc2)sc1-c1ccncc1`, the melting point fell in the range of 139 to 142 °C.
Next, `O=C(O)c1ccc(F)c(F)c1Cl`: 167 to 168 °C.
The figure for `COC(=O)c1ccc(Cn2c(=O)c(C)c3sc(C(=O)NCc4ccc(F)cc4)cn3c2=O)cc1` is over 215 °C; for `NC(=O)C1CCc2c([nH]c3ccc(Cl)cc23)C1` (stereo unspecified) it is 203 to 204 °C.
As for `O=C(NC(Cc1ccc(OCc2ccoc2)cc1)C(=O)O)c1cn2cc(-c3ccc(Cl)cc3)ccc2n1` (stereo unspecified), the melting point was 262 °C.
Compound `CC(C)(C)OC(=O)Nc1cc2cc(OCc3ccccc3)ccc2cc1OCc1ccccc1` returned a melting point of 179 to 182 °C.
In turn, `CCOC(=O)C=CC(=O)c1ccc(-c2ccc(F)cc2)cc1` returned a melting point of 115 to 117 °C.
`CCCN(CCC)C1Cc2c[nH]c3ccc(C(=O)c4ccccc4)c(c23)C1` (stereo unspecified): the melting point was 150 °C.
`CC(=O)OCC1OC(n2c(Br)c(C#N)c3cc(Cl)c(Cl)cc32)C(O)C1O` (stereo unspecified): the melting point was in the range of 103 to 105 °C.
Consider `O=C(O)C(=O)c1ccc(OCc2ccc3ccccc3c2)cc1`, for which the melting point lay within 145 to 146 °C.
`CCOC(=O)c1ccc(NC(=O)CNc2ccccc2F)cc1` returned a melting point of 169 to 170 °C.
The compound `CC(=O)C1(C(=O)N[C@H](C)c2ccccc2)CCC1` had a melting point of 57 to 60 °C.
Take `COC(=O)c1ccc(OCC2CC(=O)N(c3ccc(OCC(C)(C)O)cc3)C2)cc1` (stereo unspecified): the melting point lay in the range of 89.5 to 90.5 °C.
The compound `CCOC(=O)COc1cc(O)c2c(c1)NC1(CCCCC1)CC2=O` yielded a melting point of 134 to 135 °C.

For the origin of these results see a melting point compilation (Tetko et al.; mined from patent text by program, amines drawn as free bases though some values may be those of a salt).
